The target of the test is T1, HCV polymerase (Hepatitis C virus genotype 1b, UniProt P26663).
T1 construct: 2.5 pmoles (0.15 μg) HCV polymerase protein in a final volume of 75 μL
Kind of test: HCV polymerase primer/template-directed transcription assay (32P-GTP incorporation, filter binding). In kind it is biochemical. The conditions noted are these: for IC50: recombinant HCV polymerase, 30 minutes at 30° C., concentration giving 50% inhibition of polymerase-directed transcription, read-out: IC50. As to the method:
The compounds described herein were tested for activity with HCV polymerase. Recombinant HCV polymerase was tested for its ability to perform primer/template-directed transcription in assays that contained 30 mM tris-HCl pH 7.2, 10 mM MgCl2, 20 mM NaCl, 1 mM Dithiothreitol (DTT), 0.05% Tween-20, 1% glycerol, 5 pmoles biotin-dG12 (primer), 0.5 pmoles poly(rC)300 (template), 1 μM GTP, 0.1-0.3 uCi α-^32P-GTP, and 2.5 pmoles (0.15 μg) HCV polymerase protein in a final volume of 75 μL. Reactions were initiated by addition of enzyme and incubated 30 minutes at 30° C. Reactions were stopped by addition of 33 mM EDTA, and polynucleotide products were collected by filtration through Diethylaminoethyl (DE) Filtermat papers (Wallac). Unincorporated triphosphate was removed by washing the filters with 5% dibasic sodium phosphate. The filters were counted in a Packard Tri-Lux Microbeta scintillation counter (Packard Bioscience, Meriden, Conn.). Compounds to be tested were added at various concentrations, e.g., 1 μm to 50 μm, from stocks in 10% DMSO-water (final DMSO is 1% in reaction).
IC50 values were estimated from the primary cpm data (collected in triplicate) using the formula: cpm (I)=cpm(no inhibitor)(1−([I]/([I]+IC50))). An IC50 value represents the concentration (in μM) of a compound that provides 50% inhibition of polymerase-directed transcription in the above assay. A percent inhibition value is expressed for a compound where it was impractical to calculate an IC50 value with available data. If the IC50 estimated by the above equation was less than 200 nM, it was recalculated using the following equation, which takes into account the enzyme concentration (30 nM) in the assay: cpm(I)=cpm(no inhibitor)(1−((((I+IC50+30e−9)−sqrt(((I+IC50+30e−9)^2)−4×30e−9×I)))/((2)(30e−9))). Curve fitting was performed using the program KaleidaGraph (Synergy Software, Reading, Pa.).

Broadly, the IC50 is the point on the concentration scale where inhibition reaches its midpoint. Broadly, the inhibition is the relative decrease from the control value, in per cent.

T1 sequence (P26663 2420-3010): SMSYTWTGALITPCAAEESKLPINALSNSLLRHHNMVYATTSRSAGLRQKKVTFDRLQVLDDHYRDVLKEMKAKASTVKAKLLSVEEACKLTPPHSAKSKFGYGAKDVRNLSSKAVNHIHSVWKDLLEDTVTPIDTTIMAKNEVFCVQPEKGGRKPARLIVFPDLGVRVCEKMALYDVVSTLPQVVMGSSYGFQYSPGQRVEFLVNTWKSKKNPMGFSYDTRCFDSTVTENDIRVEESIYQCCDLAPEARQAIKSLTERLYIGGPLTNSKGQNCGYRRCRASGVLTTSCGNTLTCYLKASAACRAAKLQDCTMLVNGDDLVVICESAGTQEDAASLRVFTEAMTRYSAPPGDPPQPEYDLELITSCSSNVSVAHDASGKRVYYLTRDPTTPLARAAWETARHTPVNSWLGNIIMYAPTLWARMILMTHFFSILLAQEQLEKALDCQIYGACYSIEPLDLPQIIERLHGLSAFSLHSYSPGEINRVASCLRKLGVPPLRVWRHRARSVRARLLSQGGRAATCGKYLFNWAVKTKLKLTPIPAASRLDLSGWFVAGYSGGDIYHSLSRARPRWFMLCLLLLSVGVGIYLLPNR

As for `CCC(C#N)(CC)c1c(F)cc(CCC2(C3CCCC3)CC(O)=C(Cc3nc4ncc(C)cn4n3)C(=O)O2)cc1F` (racemic) [A(262), 2-(4-{2-[2-Cyclopentyl-4-hydroxy-5-(6-methyl-[1,2,4]triazolo[1,5-a]pyrimidin-2-ylmethyl)-6-oxo-3,6-dihydro-2H-pyran-2-yl]-ethyl}-2,6-difluoro-phenyl)-2-ethyl-butyronitrile], the IC50 was 6 nM.

On to `O=C1CC(=O)OC(CCc2ccc(CCO)cc2)(C2CCCC2)C1` (stereo not drawn) [A(79), 6-Cyclopentyl-6-{2-[4-(2-hydroxy-ethyl)-phenyl]-ethyl}-dihydro-pyran-2,4-dione], for which the IC50 was found to be 1000 nM.

For the compound `CC(C)Oc1ccc(CCC2(C3CCCC3)CC(O)=C(Sc3nnc(O)n3C(C)C)C(=O)O2)cc1F` (stereo not drawn) [C(12), 6-Cyclopentyl-6-[2-(3-fluoro-4-isopropoxy-phenyl)-ethyl]-4-hydroxy-3-(5-hydroxy-4-isopropyl-4H-[1,2,4]triazol-3-ylsulfanyl)-5,6-dihydro-pyran-2-one], the IC50 is 82 nM.

Regarding `Cc1cc(C)n2nc(CC3=C(O)CC(CCc4ccc(C5(C#N)CC5)c(F)c4)(C4CCCC4)OC3=O)nc2n1` (stereo not drawn) [B(76), 1-(4-{2-[2-Cyclopentyl-5-(5,7-dimethyl-[1,2,4]triazolo[1,5-a]pyrimidin-2-ylmethyl)-4-hydroxy-6-oxo-3,6-dihydro-2H-pyran-2-yl]-ethyl}-2-fluoro-phenyl)-cyclopropanecarbonitrile], the half-maximal inhibitory concentration (IC50) came out at 1 nM.

For the compound `CCc1cc(CCC2(C3CCCC3)CC(=O)CC(=O)O2)cc(Cl)c1O` (stereo not drawn) [B(101), 6-[2-(3-Chloro-5-ethyl-4-hydroxy-phenyl)-ethyl]-6-cyclopentyl-dihydro-pyran-2,4-dione], the IC50 came out at 610 nM.

In the case of `Cc1cc(C)n2nc(CC3=C(O)CC(CCc4ccc(OC(C)C)cc4)(C4CCCC4)OC3=O)nc2n1` (stereo not drawn) [B(34)], the half-maximal inhibitory concentration (IC50) was 30 nM.

Take `CC(C)(C#N)c1ccc(CCC2(C3CCCC3)CC(O)=C(Cc3cn4cccnc4n3)C(=O)O2)cc1F` (stereo not drawn) [A(221), 2-(4-{2-[2-cyclopentyl-4-hydroxy-5-(imidazo[1,2-a]pyrimidin-2-ylmethyl)-6-oxo-3,6-dihydro-2H-pyran-2-yl]ethyl}-2-fluorophenyl)-2-methylpropanenitrile]: the half-inhibitory concentration (IC50) turned out to be 14 nM.

On to `CCc1cc(CCC2(C3CCCC3)CC(O)=C(Cc3nc4ncc(Cl)cn4n3)C(=O)O2)ccn1` (stereo not drawn) [A(164), 3-(6-Chloro-[1,2,4]triazolo[1,5-a]pyrimidin-2-ylmethyl)-6-cyclopentyl-6-[2-(2-ethyl-pyridin-4-yl)-ethyl]-4-hydroxy-5,6-dihydro-pyran-2-one], for which the IC50 turned out to be 42 nM.

For `CCc1cccc(CCC2(C3CCCC3)CC(=O)CC(=O)O2)c1` (single isomer, unassigned) [J(5), 6-Cyclopentyl-6-[2-(3-ethyl-phenyl)-ethyl]-dihydro-pyran-2,4-dione], the IC50 was 1900 nM.

As for `COc1cc(OC)c(CCC2(C3CCCC3)CC(O)=C(Sc3nnnn3C)C(=O)O2)cc1Cl` (stereo not drawn) [C(72), 6-[2-(5-Chloro-2,4-dimethoxyphenyl)ethyl]-6-cyclopentyl-4-hydroxy-3-[(1-methyl-1H-tetrazol-5-yl)thio]-5,6-dihydro-2H-pyran-2-one], the IC50 amounted to 78 nM.

Turning to `Cc1cc(C(=O)N[C@H](C)c2ccc(CCC3(C4CCCC4)CC(=O)CC(=O)O3)cc2)no1` (stereo partly drawn) [A(43), 5-Methyl-isoxazole-3-carboxylic acid (1-{4-[2-(2-cyclopentyl-4,6-dioxo-tetrahydro-pyran-2-yl)-ethyl]-phenyl}-ethyl)-amide], the concentration for half-maximal inhibition (IC50) came out at 20000 nM.

For the compound `CC(=O)Nc1ccc(CCC2(C3CCCC3)CC(=O)CC(=O)O2)cc1F` (stereo not drawn) [A(07), N-{4-[2-(2-Cyclopentyl-4,6-dioxo-tetrahydro-pyran-2-yl)-ethyl]-2-fluoro-phenyl}-acetamide], the IC50 worked out at 13400 nM.

Consider `CC(C)Oc1ccc(CCC2(C3CCCC3)CC(=O)CC(=O)O2)cc1F` (single isomer, unassigned) [J(1), 6-cyclopentyl-6-[2-(3-fluoro-4-isopropoxyphenyl)ethyl]dihydro-2H-pyran-2,4(3H)-dione], for which the concentration for half-maximal inhibition (IC50) was 4400 nM.

On to `CC(C)c1ccc(SCC2(C3CCCC3)CC(=O)CC(=O)O2)cc1` (stereo not drawn) [I(4), 6-cyclopentyl-6-{[(4-isopropylphenyl)thio]methyl}dihydro-2H-pyran-2,4(3H)-dione], for which the inhibition at 50 µM (@ 50 uM compound, given where IC50 was impractical to calculate, read-out: percent inhibition) was 44%.

`N#CC1(c2ccc(CCC3(C4CCCC4)CC(=O)C(Cc4nc5ncc(Cl)cn5n4)C(=O)O3)cc2F)CC1` (stereo not drawn) [A(115), 1-(4-{2-[5-(6-Chloro-[1,2,4]triazolo[1,5-a]pyrimidin-2-ylmethyl)-2-cyclopentyl-4,6-dioxo-tetrahydro-pyran-2-yl]-ethyl}-2-fluoro-phenyl)-cyclopropanecarbonitrile]: the IC50 stood at 5 nM.

For the compound `COc1cc(OC)c(CCC2(C3CCCC3)CC(O)=C(Sc3nc4cc(Cl)ccc4n3C(C)C)C(=O)O2)cc1Cl` (stereo not drawn) [C(73), 6-[2-(5-Chloro-2,4-dimethoxyphenyl)ethyl]-3-[(5-chloro-1-isopropyl-1H-benzimidazol-2-yl)thio]-6-cyclopentyl-4-hydroxy-5,6-dihydro-2H-pyran-2-one], the IC50 was determined as 35 nM.

`COc1ccc(CCC2(C3CCCC3)CC(O)=C(Sc3nc4c(C)cccc4[nH]3)C(=O)O2)cc1Cl` (stereo not drawn) [C(54), 6-[2-(3-chloro-4-methoxyphenyl)ethyl]-6-cyclopentyl-4-hydroxy-3-[(4-methyl-1H-benzimidazol-2-yl)thio]-5,6-dihydro-2H-pyran-2-one]: the IC50 is 220 nM.

For the compound `Cc1cc(C)n2nc(CC3=C(O)CC(CCc4ccc([C@@H](C)O)cc4)(C4CCCC4)OC3=O)nc2n1` (stereo partly drawn) [B(112), 6-Cyclopentyl-3-(5,7-dimethyl-[1,2,4]triazolo[1,5-a]pyrimidin-2-ylmethyl)-4-hydroxy-6-{2-[4-(1-hydroxy-ethyl)-phenyl]-ethyl}-5,6-dihydro-pyran-2-one], the half-inhibitory concentration (IC50) is 97 nM.

As to `COCc1ccc(CCC2(C3CCCC3)CC(=O)CC(=O)O2)cc1F` (stereo not drawn) [A(08), 6-Cyclopentyl-6-[2-(3-fluoro-4-methoxymethyl-phenyl)-ethyl]-dihydro-pyran-2,4-dione], the IC50 was 6000 nM.

`CC(C#N)c1ccc(CCC2(C3CCCC3)CC(=O)CC(=O)O2)cc1F` (stereo not drawn) [A(241), 2-{4-[2-(2-Cyclopentyl-4,6-dioxo-tetrahydro-pyran-2-yl)-ethyl]-2-fluoro-phenyl}-propionitrile]: the IC50 was 800 nM.

As to `CCc1cc(CCC2(C3CCCC3)CC(=O)CC(=O)O2)c(OC)cc1O` (stereo not drawn) [A(151), 6-Cyclopentyl-6-[2-(5-ethyl-4-hydroxy-2-methoxy-phenyl)-ethyl]-dihydro-pyran-2,4-dione], the half-inhibitory concentration (IC50) is 300 nM.

Turning to `COc1cc(OC)c(CCC2(C3CCCC3)CC(O)=C(Sc3nnc(-c4cccnc4)[nH]3)C(=O)O2)cc1Cl` (stereo not drawn) [C(75), 6-[2-(5-chloro-2,4-dimethoxyphenyl)ethyl]-6-cyclopentyl-4-hydroxy-3-[(5-pyridin-3-yl-4H-1,2,4-triazol-3-yl)thio]-5,6-dihydro-2H-pyran-2-one], the IC50 came out at 44 nM.

For the compound `N#CC1(c2ccc(CCC3(C4CCCC4)CC(=O)C(Cc4nc5ncccn5n4)C(=O)O3)cc2F)CC1` (stereo not drawn) [A(114), 1-{4-[2-(2-Cyclopentyl-4,6-dioxo-5-[1,2,4]triazolo[1,5-a]pyrimidin-2-ylmethyl-tetrahydro-pyran-2-yl)-ethyl]-2-fluoro-phenyl}-cyclopropanecarbonitrile], the concentration for half-maximal inhibition (IC50) turned out to be 10 nM.

`O=C1CC(=O)OC(CCc2ccc(OCC(F)(F)F)c(Cl)c2)(C2CCCC2)C1` (stereo not drawn) [A(05), 6-{2-[3-Chloro-4-(2,2,2-trifluoro-ethoxy)-phenyl]-ethyl}-6-cyclopentyl-dihydro-pyran-2,4-dione]: the 50% inhibitory concentration (IC50) was found to be 5100 nM.

Regarding `COc1ccc(CCC2(C3CCCC3)CC(O)=C(Sc3nc4cnccc4[nH]3)C(=O)O2)cc1Cl` (stereo not drawn) [C(46), 6-[2-(3-chloro-4-methoxyphenyl)ethyl]-6-cyclopentyl-4-hydroxy-3-(1H-imidazo[4,5-c]pyridin-2-ylthio)-5,6-dihydro-2H-pyran-2-one], the IC50 came out at 37 nM.

As to `CCc1cc(CCC2(C3CCCC3)CC(O)=C(Cc3nc4ncc(Cl)cn4n3)C(=O)O2)c(OC)cc1O` (racemic) [A(211), (−)-3-[(6-chloro[1,2,4]triazolo[1,5-a]pyrimidin-2-yl)methyl]-6-cyclopentyl-6-[2-(5-ethyl-4-hydroxy-2-methoxyphenyl)ethyl]-4-hydroxy-5,6-dihydro-2H-pyran-2-one], the IC50 was determined as 4 nM.

On to `CCc1cc(CCC2(C3CCCC3)CC(O)=C(Cc3nc4nc(C)cc(C)n4n3)C(=O)O2)cc(Cl)c1O` (stereo not drawn) [B(100), 6-[2-(3-Chloro-5-ethyl-4-hydroxy-phenyl)-ethyl]-6-cyclopentyl-3-(5,7-dimethyl-[1,2,4]triazolo[1,5-a]pyrimidin-2-ylmethyl)-4-hydroxy-5,6-dihydro-pyran-2-one], for which the 50% inhibitory concentration (IC50) came out at 3 nM.

The record behind these values is patent publication US7473790B2 (Pfizer Inc., priority 2003, dated 2009).
